The METLIN SMRT retention time set (Domingo-Almenara et al. 2019)

Test: gradient 5% acetonitrile 3 min, to 50% in 2 min, to 85% in 15 min, held 3 min, 100 µL/min
Settings: column: Zorbax Extend-C18 2.1 x 50 mm; eluents: water / acetonitrile, 0.1% formic acid
Method in brief: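 A Zorbax Extend-C18 column (2.1 × 50 mm, 1.8 μm) run at 100 μL/min with water and acetonitrile, both containing 0.1% formic acid, separated mixtures of ~100 pure standards. The HPLC was coupled to a quadrupole time-of-flight mass spectrometer operated in positive and negative ionization mode, with dead and dwell volumes of 40 μL and 900 μL. Each retention time was taken from a computationally picked adduct peak that was then manually inspected.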

| RP-LC retention time [s] | Structure (SMILES) |
| --- | --- |
| 720 | Cc1c(Cl)cccc1NC(=O)N1CC(n2cnnc2-c2ccccc2)C1 |
| 700 | COc1ccc(-c2nc(-c3ccc4c(c3)nnn4CCN(C)C)no2)c(C)c1 |
| 865 | CCCn1cc(CCNC(=O)Nc2cccc(Br)c2)c2cccnc21 |
| 768 | CCOC(=O)c1nc(NCc2ccc(OC)cc2OC)c2ccccc2n1 |
| 753 | Cc1ccc(NC(=O)Cc2cccc3ccccc23)cc1N1CCCC1=O |
| 1080 | CC(C)c1cccc(NC(=O)Cn2c(=O)cc(-c3nc(C4CC4)no3)c3ccccc32)c1 |
| 867 | Cc1ccc(-n2cc3c(c(C(=O)NC4CC4)c2=O)CC(C)(C)CC3=O)cc1 |
| 1160 | CCN(C(=O)CSC1=Nc2ccccc2NC(CC(=O)OC)=C1)c1cccc(C)c1 |
| 797 | COc1ccc(Br)c(-c2nnc(C)o2)c1 |
| 662 | Cc1oc(-c2[nH]ncc2C(=O)N2CCOCC2)cc1S(=O)(=O)Nc1ccccc1F |
| 748 | Cc1cc(C2CCCN2C(=O)Nc2ccccc2C)on1 (centres undefined) |
| 738 | Cc1ccc(N2CC(c3nc(-c4ccc5c(c4)ncn5CCC(=O)N4CCCC4)no3)CC2=O)cc1C (centres undefined) |
| 686 | Cc1ccc2nc(C(=O)NCc3ccccc3C)cn2c1 |
| 671 | COc1ccccc1CNC(=O)Cc1nnc(-c2ccccn2)o1 |
| 919 | Cc1ccc(-n2nc(C)c(S(=O)(=O)N3CCC(C(=O)NCc4cccs4)CC3)c2C)cc1 |
| 965 | Cc1cc2nn(CC(=O)Nc3ccccc3)c(=O)n2c(Nc2ccccc2)n1 |
| 710 | Cc1ccc2nc(C)c(NC(=O)C3c4ccccc4Oc4ccccc43)c(=O)n2c1 |
| 976 | Cc1cc(OCC(=O)Nc2ccc(C#N)cc2)nc(-c2ccc(F)cc2)n1 |

| RP-LC retention time [s] | Structure (SMILES) |
| --- | --- |
| 1120 | Cc1ccccc1Nc1c(-c2cccc(Cl)c2)nc2ccc(Br)cn12 |
| 695 | COC(=O)c1ccccc1NC(=O)CSc1nccc(N2CCN(c3cccc(OC)c3)CC2)n1 |
| 606 | Cc1cccc(C)c1NC(=O)Cn1ncc2c(N3CCN(c4ccccn4)CC3)ncnc21 |
| 812 | Cc1ccc(Nc2c(-c3cc(Br)ccc3F)nc3ccc(C)cn23)cc1 |
| 723 | Cc1ccccc1NC(=O)C1CCc2nc(N3CCOCC3)ncc2C1 (centres undefined) |
| 953 | CCCNC(=O)c1cc2c(-c3cccs3)nn(-c3ccccc3)c2n1C |
| 656 | O=C(OCc1cc(-c2ccccc2)on1)c1ccc[nH]c1=O |
| 823 | C[C@H]1CN(C(=O)CSc2ccccc2)C[C@@H]1c1nc(-c2cccnc2)no1 |
| 942 | Cc1ccc(NC(=O)c2cccn2Cc2noc(C)n2)c(Br)c1 |
| 936 | COc1ccc(NC(=O)CCc2nc(-c3ccc(N4CCCC4)cc3)no2)cc1OC |
| 645 | COc1ccc(C(C)NC(=O)c2cn3ccc(C)cc3n2)cc1 (centres undefined) |
| 493 | Cn1nc(C(=O)Nc2cccnc2)ccc1=O |
| 614 | COc1ccccc1NC(=O)c1cc2c(s1)CN(C(C)C)C2 |
| 1050 | Cc1ccccc1-c1cc2c(=O)n(Cc3nc(-c4ccccc4)no3)ccn2n1 |
| 774 | Cc1ccc(Cn2nc3c(S(=O)(=O)N4CCOCC4)cccn3c2=O)cc1 |
| 1020 | COc1ccc(-c2csc(NC(=O)CS(=O)(=O)c3ccc(Cl)cc3)n2)c(OC)c1 |
| 964 | COC(=O)c1cnn(-c2cccc(C)c2)c1-n1cccc1 |
| 1050 | COc1ccc(-c2nc(-c3cn(-c4ccc(C)cc4)nn3)no2)c(OC)c1 |

Continued, molecule first:

| Structure (SMILES) | RP-LC retention time [s] |
| --- | --- |
| COC(=O)Cn1c(COc2ccccc2)nc2ccccc21 | 706 |
| Cc1ccc(NC(=O)C2CCCN2S(=O)(=O)c2cc3c(cc2Cl)NC(=O)CO3)cc1C (centres undefined) | 832 |
| O=[N+]([O-])c1ccc(CSc2ccc(-c3ccccn3)nn2)cc1 | 893 |
| CCc1nc2c(=O)n(CC(=O)N3CCN(c4ccccn4)CC3)nc(C)c2s1 | 585 |
| COc1cccc(-n2nnc(C(=O)O)c2C(F)(F)F)c1 | 752 |
| CCN1c2cc(F)ccc2C(=O)NC12CCN(C(=O)c1cc(OC)cc(OC)c1)CC2 | 813 |
| CCn1cc(CN2CCC(C(=O)NC3CCCCCC3)CC2)c2cc(OC)ccc21 | 741 |
| O=C(c1c(F)cccc1Cl)N1CCN(S(=O)(=O)c2cc3c4c(c2)CCC(=O)N4CCC3)CC1 | 828 |
| O=C(NCCc1csc(-c2ccccc2)n1)C1CCN(C(=O)c2cccc(Cl)c2)CC1 | 846 |
| O=C(C1CC1)N1CCCC(OCc2nc(-c3ccncc3)no2)C1 (centres undefined) | 619 |
| O=C(c1cnccn1)N1CCCn2nc(-c3cccs3)cc2C1 | 689 |
| O=C(NCCCO)C(=O)Nc1ccc(Cl)c(C(F)(F)F)c1 | 795 |
| O=C(NC(NC(=O)c1ccccc1)c1ccccc1)c1ccccc1 | 765 |
| CCCCOc1ccc(-c2cc3c4nnc(CCC(=O)NCc5ccccc5C)n4ccn3n2)cc1 | 1010 |
| CS(=O)(=O)N1C[C@H]2CCN(Cc3cccc(Cl)c3F)C[C@H]21 | 607 |
| Cc1ccc(NC(=O)CC(=O)Nc2ccc3nc4n(c(=O)c3c2)CCCCC4)cc1F | 750 |
| CN(C)S(=O)(=O)N1CC[C@@H]2C(=O)NCCCCCCN(Cc3ccncc3)[C@@H]2C1 | 603 |
| CCc1c(C)nc2nc(-c3ccccc3)nn2c1Nc1cccc(OC)c1 | 989 |
| O=c1n(Cc2ccccc2F)nc2c(S(=O)(=O)N3CCCCCC3)cccn12 | 938 |
| O=C(NCc1ccccc1)N1CCN(Cc2nc3ccc(Cl)cc3o2)CC1 | 723 |
| CCC(C(=O)NCCc1c(C)nn(CC)c1C)n1c2ccccc2c2cnn(C)c(=O)c21 (centres undefined) | 698 |
| Cc1cc(S(=O)(=O)N2C[C@@H](F)C[C@H]2C(=O)N2CCc3ccccc3C2)ccc1Cl | 1020 |
| O=C(c1ccc(Br)o1)N1c2ccccc2CC1c1nnc(C2CCOCC2)o1 (centres undefined) | 804 |
| CCC(=O)NCc1nc2c(n1CC)CN(S(=O)(=O)c1ccc(F)cc1)CC2 | 575 |
| Cc1cc(N2CCCCC2)n2nc(CN3CCN(C(C)C)CC3)nc2n1 | 574 |
| O=C(Nc1cccc(Cl)c1Cl)C1(c2ccc(F)cc2)CC1 | 1280 |
| COc1ccc(OCC(=O)N2CCC(C(=O)NCCc3csc(-c4ccccc4)n3)CC2)cc1 | 818 |

| Structure (SMILES) | RP-LC retention time [s] |
| --- | --- |
| Cc1cnc(C2CN(C(=O)c3ccnn3C)C2)n1CC1CC1 | 568 |
| O=C(O)CCC(=O)Nc1cccc(C(F)(F)F)c1 | 674 |
| O=C(Cc1ccc(F)cc1)NC1CCN(c2cc(-c3ccc(Cl)cc3)[nH]n2)C1 (centres undefined) | 789 |
| COc1ccccc1C(=O)N1CCN(c2nc3ccccc3n(C)c2=O)CC1 | 830 |
| CC(C)n1c(CC2CCN(C(=O)c3ccccc3Cl)C2)nc2cccnc21 (centres undefined) | 622 |
| COc1cc(NS(=O)(=O)c2cc(-c3nc(C)cs3)n(CC(=O)N3CCCC3)c2)cc(OC)c1 | 877 |
| COc1ccc(CCNC(=O)CN2C(=O)CCc3cc(Br)ccc32)cc1OC | 800 |
| CCC(C)C(=O)N1CCCN(C2=NS(=O)(=O)C(c3ccc(C(C)C)cc3)=C2C)CC1 (centres undefined) | 974 |
| COc1ccc(CC(=O)N2CCCC2c2cc(C)on2)cc1OC (centres undefined) | 716 |
| CCCNC(=O)N1CCC2(CCCCO2)CC1 | 602 |
| CCOC(=O)c1[nH]c(C)c(CCC(=O)Nc2ccc3c(c2)OCCO3)c1C | 805 |
| O=C1NCCCn2cc(S(=O)(=O)Nc3ccc4c(c3)OCCO4)cc21 | 622 |
| Cc1nn(-c2ccc(-c3ccccc3)nn2)c(C)c1S(=O)(=O)Nc1ccc2c(c1)OCCO2 | 978 |
| Cc1cccc(NC(=O)C2CCN(S(=O)(=O)c3cc(C(=O)N4CCC(C)CC4)n(C)c3)CC2)n1 | 722 |
| CNC(=O)N1Cc2ccccc2OC2(CCN(C(C)C)CC2)C1 | 592 |
| CCCCOc1ccc(-c2cc3c4nn(CC(=O)NC(C)C)c(=O)n4ccn3n2)cc1 | 954 |
| CCn1c(N2CCCC(C(=O)NCc3ccco3)C2)cc(=O)n(C)c1=O (centres undefined) | 731 |
| CCCCNC(=O)Cn1c(C(=O)OC)cc2oc3ccccc3c21 | 959 |
| C[C@H]1CC[C@]2(NC1)O[C@H]1C[C@H]3[C@@H]4CC[C@H]5C[C@@H](O)CC[C@]5(C)[C@H]4CC[C@]3(C)[C@H]1[C@@H]2C | 776 |
| CCCOC1CCN(C(=O)NC)CC1 | 630 |
| Cc1nc2nc(-c3ccc(C(C)(C)C)cc3)nn2c(C)c1CC(=O)N1CCCCC1 | 1040 |
| Cc1cc(NC(=O)C(=O)NCC2(c3cccs3)CC2)no1 | 802 |
| CCOC(=O)N1CCN(C(=O)CSc2ccc3nnc(-c4cccnc4)n3n2)CC1 | 585 |
| Cc1nn(C(C)C(=O)NCCCN2CCN(C)CC2)c(=O)c2c1sc1ccccc12 (centres undefined) | 592 |
| Cc1nn(CC(=O)NCCN2CCOCC2)c(=O)c2c(-n3cccc3)n(-c3ccc(Cl)cc3)nc12 | 704 |
| CN1CCN(c2cc(-c3nc(-c4ccccc4)no3)c3ccccc3n2)CC1 | 796 |
